Laboratory results: patent publication US20230035127A1, “CULTURE AND DIFFERENTIATION OF PLURIPOTENT STEM CELLS” (University of Maryland, College Park, priority 2021, published 2023)
Values joined by “and” are separate entries in the source; they are usually repeats but may differ in a detail not shown here. Equal values may be shown once.

Legend:
eiPSC spheroids = experiment: Teratoma assay of eiPSC spheroids injected subcutaneously into NOD/SCID mice; type: in vivo; details: eiPSC spheroids from 1 and 10 μM RI groups, day 0, s.c. in NOD/SCID mice
Protocol: To test the pluripotency of the cells in the 3D iPSC spheroids in vivo with the teratoma assay, the eiPSC spheroids were directly injected subcutaneously (s.c.) into the dorsal rear flank of severe combined immunodeficient mice (NOD.CB17-scid). A total of 2×10^6 cells in 300 μL of PBS was injected into each mouse (age: 5 weeks, and 5 mice per group). After 5 weeks, the mice were sacrificed, and the resulting teratoma were collected and fixed in 4% paraformaldehyde (PFA) for 3 days. Afterward, the samples were cut into small pieces of ˜0.5 cm^3, embedded in paraffin, and sectioned into slices of 5 μm thick. The slices were stained with hematoxylin and eosin (H&E) and imaged with a Zeiss LSM 710 microscope. All animal studies were approved by the Institutional Animal Care and Use Committee (IACUC, #R-MAY-18-24) at the University of Maryland, College Park.

human eiPSCs = experiment: 3D cardiac differentiation of eiPSC spheroids: percentage of beating cardiac spheroids and outset beating time; type: cell-based; details: for beating efficiency of 3D cardiac differentiation: PSCs
Protocol: Cardiac differentiation of the 3D eiPSC spheroids was conducted by modulating the canonical Wnt signaling pathway with agonists and antagonists sequentially, which has also been used for differentiation of human PSCs into cardiomyocytes under 2D culture. Two Wnt agonists, CHIR99021 (8 μM) and 6-bromoindirubin-3′-oxime (BIO, 2 μM), were supplemented into the culture medium on day 0, to up-regulate the Wnt signaling and induce iPSC differentiation into mesoderm for 1 day. On day 1, two Wnt antagonists, XAV939 (10 μM) and KY02111 (10 μM), were used to suppress the Wnt signaling for inducing cardiac commitment of the mesoderm cells in the following 6 days to obtain cardiac spheroids. Afterward, the cardiac spheroids were cultured in pure cardiac maintenance medium for maturation until day 13.5. […] In other words, the outset beating time (OBT) of the cardiac spheroids was synchronized to be within ˜24 h for the 1 μM RI group. No significant change in the beating percentage from day 7.5 to day 13.5 was observed. In contrast, in the 10 μM RI group, only ˜8% and ˜44% of cardiac spheroids beat on days 6.5 and 13.5, respectively (FIG. 4A, on day 13.5). […] Therefore, the OBT ranges over at least a week, indicating high heterogeneity of the cardiac spheroids in the 10 μM RI group as the beating is a direct and visible indicator of functional maturity of the cardiac spheroids.
To obtain 3D iPSC spheroids, the iPSC colonies under 2D culture at ˜80% confluence were treated with Versene for 2 min, rinsed with PBS, and further detached from the substrate by gentle pipetting. The detached iPSCs were re-suspended in mTeSR1 with Rock inhibitor (Y27632) at 0, 1, 5, or 10 μM. Afterward, the medium was supplemented with 0.35% (v/v) methylcellulose. The cell suspension (12 ml) containing ˜4×10^6 cells was pushed through a cell strainer with 100 μm mesh size. Later, the suspension of iPSC clumps was transferred into a petri dish (diameter: 10 cm) for culture in a humidified incubator at 37° C. and 5% CO2 for 2 days, during which the 2D iPSC clumps grew into 3D iPSC spheroids. Then, the medium was changed to mTeSR1 (supplemented with 0.35% methylcellulose) with no rock inhibitor, to further culture for 2 days before cardiac differentiation. To determine the number of cells per eiPSC spheroid, roughly equal numbers of the spheroids from either the 1 or 10 μM RI group were pooled together and trypsinized to dissociate the cells. The dissociated cells were then resuspended in 1.4 ml of the aforementioned iPSC maintenance medium and the cell number was counted using a hemocytometer. Three independent runs with 282, 260, and 256 spheroids for the 1 μM RI group and 273, 298, and 286 spheroids for the 10 μM RI group were conducted.
The eiPSC spheroids obtained after 4 days of culture on day 0 were induced into mesoderm by up-regulation of the Wnt signaling pathway using 8 μM CHIR99021 and 2 μM GSK inhibitor 6-bromoindirubin-3′-oxime (BIO) in the mesoderm induction medium for 1 day. The mesoderm induction medium was a mixture of DMEM/F12 and α-MEM (v/v, 1:1), containing 2% Knockout Serum Replacement (KOSR), 1 mM L-glutamine, 1% MEM non-essential amino acids (NEAA), and 0.1 mM β-mercaptoethanol. After 1 day, the spheroids were induced for cardiac commitment by down-regulating the Wnt signaling pathway using 10 μM KY02111 and 10 μM XAV939 in the cardiac maintenance medium for 6 days with the medium being changed every other day. The cardiac maintenance medium was a mixture of RPMI1640 and α-MEM (v/v, 1:1) containing 5% fetal bovine serum (FBS). Starting from day 8, the cardiac maintenance medium without KY02111 and XAV939 was used, and it was changed every other day for cardiac maturation. Images and videos of the resultant cardiac spheroids were taken using the Zeiss LSM 710 microscope before medium change.

IMR90-1 human iPSCs = experiment: Flow cytometry of IMR90-1 cardiac spheroids; type: cell-based; details: day 12.5
Protocol: For flow cytometry, the eiPSC spheroids were collected on day 0 and the cardiac spheroids were collected on days 1.5, 2.5, 12.5, 15. The spheroids were dissociated to single cells by 0.25% trypsin for 5 min at 37° C. and then fixed with 75% ethanol at 4° C. overnight. The cells were permeabilized with 0.05% Triton X-100 for 3 min and then rinsed with 1×PBS twice. The cell numbers were adjusted to 1×10^6 cells/tube in 700 μL of saline for each marker. These cells were incubated with primary antibodies including OCT-4 (1:500 dilution, Cell Signaling Technologies), NANOG (1:500 dilution, Cell Signaling Technologies), SSEA-4 (1:500 dilution, Cell Signaling Technologies), BRACHYURY (1:500; Santa Cruz Biotechnology), NKX2.5 (1:500; Santa Cruz Biotechnology), cTnT (1:500 dilution, Cell Signaling Technologies), cTnI (1:500 dilution, Cell Signaling Technologies), α-ACTININ (1:500 dilution; Santa Cruz Biotechnology), MUSASHI-1 (1:500; R&D Systems), and TUJ-1 (1:500; R&D Systems) at 4° C. overnight. Subsequently, the samples were rinsed with 1×PBS thrice before incubation with corresponding secondary antibodies: goat anti-mouse IgG FITC and goat anti-rabbit IgG PE, respectively (1:1000; Invitrogen) for 1 h at RT. The samples were then rinsed with 1×PBS thrice before flow cytometry. The negative controls were the cells incubated with respective primary antibodies as aforementioned (no incubation with a secondary antibody).

SMILES: C[C@@H](N)[C@H]1CC[C@H](C(=O)Nc2ccncc2)CC1.Cl.Cl (relative stereo) [RI, (+)-(R)-trans-4-(1-aminoethyl)-N-(4-pyridyl) cyclo-hexanecarboxamide dihydrochloride]
- teratoma formation (pluripotency in vivo) (eiPSC spheroids): forming teratomas consisting of tissues from all the three germ layers
- beating efficiency of 3D cardiac differentiation (human eiPSCs; 1 μM RI, in about 7 days): more than 95%
- percentage of beating cardiac spheroids (human eiPSCs; 1 μM RI, day 6.5): ~48%
- percentage of beating cardiac spheroids (human eiPSCs; 5 μM RI, day 9.5): ~61%
- beating efficiency of 3D cardiac differentiation (human eiPSCs; 10 μM RI, in 14 days): less than 50%
- outset beating time (OBT) (human eiPSCs; 10 μM RI, day 6-6.5 to day 13.5): more than 7 days
- percentage of beating cardiac spheroids (human eiPSCs; 10 μM RI, day 6.5): ~8%
- percentage of beating cardiac spheroids (human eiPSCs; 10 μM RI, day 13.5, dihydrochloride): ~44% and 44.3%
- cells positive for MUSASHI (IMR90-1 human iPSCs; 1 μM RI): negligible
- cells positive for cTnT (IMR90-1 human iPSCs; 1 μM RI): 91%
- cells positive for MUSASHI (IMR90-1 human iPSCs; 10 μM RI): ~20%
- cells positive for cTnT (IMR90-1 human iPSCs; 10 μM RI): 32%
